Consider 15 compounds from patent US20240228458A1, “PYRIMIDINE DERIVATIVE HAVING PROTEIN KINASE INHIBITORY ACTIVITY, AND THERAPEUTIC PHARMACEUTICAL COMPOSITION COMPRISING SAME” (THERAPEX CO., LTD., priority 2021, published 2024).

As a reminder, the GI50 is the concentration that inhibits growth by half.

Format in all cases: cell-based
Assay [1] relates to Ba/F3 cells expressing del19/T790M/C797S (EGFR-DTC). Briefly: Growth inhibition (GI50) of Ba/F3 cells expressing del19/T790M/C797S (EGFR-DTC), Celltiter glo. The note with it: Mus musculus, BaF3, 72 h. The essentials:
(§1)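 Viability read by CellTiter-Glo after 72 h compound exposure (37 °C, 5% CO2) of variant-expressing Ba/F3 cells plated at 100,000 cells/ml. Dosing 4 h post-seeding; 10-pt 4-fold series from 2 mM stock; 0.5% DMSO. GI50 = molar concentration (μM) giving half-maximal growth inhibition.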
On the technique in general: In ATP-based viability assays light output follows the ATP content of the culture.

Assay [2] deals with Ba/F3 cells expressing L858R/T790M (EGFR-LT). Briefly: Growth inhibition (GI50) of Ba/F3 cells expressing L858R/T790M (EGFR-LT), Celltiter glo. The settings on record: Mus musculus, BaF3, 72 h. As to the method: (§2) In this experimental example, a determination was made as to whether the compounds prepared in Examples 1-283 have the ability to inhibit the growth of Ba/F3 cells expressing EGFR-wt, del19/T790M/C797S (EGFR-DTC), L858R/T790M/C797S (EGFR-LTC), del19/T790M (EGFR-DT), and L858R/T790M (EGFR-LT) variants.
(§3) The parental Ba/F3 cell line is a population of cells that are not introduced with EGFR variants. Specifically, 100 μl of a cell line expressing each variant was plated in a 96-well plate at a density of 100,000 cells/ml. 10-point, 4-fold serial dilutions of each compound were prepared, starting at 2 mM. After 4 h, 0.5 μl of the compound (0.5% DMSO) was added, followed by incubation at 37° C. and 5% CO2 for 72 h. After incubation, the number of viable cells was measured using a Celltiter glo assay kit (Promega) and the GI50 of the compound was determined. The term “GI50” refers to the molar concentration (μM) of the compound required for 50% growth inhibition of cells.

Assay [3] relates to Ba/F3 cells expressing EGFR-wt. Briefly: Growth inhibition (GI50) of Ba/F3 cells expressing EGFR-wt, Celltiter glo. The note with it: Mus musculus, BaF3, 72 h. The method, boiled down: as §1
The test system of assay [4] is Ba/F3 cells expressing L858R/T790M/C797S (EGFR-LTC). Briefly: Growth inhibition (GI50) of Ba/F3 cells expressing L858R/T790M/C797S (EGFR-LTC), Celltiter glo. The settings on record: Mus musculus, BaF3, 72 h. The method, boiled down:
as §1

Another assay deals with parental Ba/F3 cell line. As to the kind of experiment: Growth inhibition (GI50) of the parental Ba/F3 cell line (not introduced with EGFR variants), Celltiter glo. The settings on record: Mus musculus, BaF3, 72 h, parental Ba/F3 cells. The essentials: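 Parental Ba/F3 cells (100,000 cells/ml) were treated with 10-point, 4-fold compound dilutions (0.5% DMSO; top stock 2 mM) for 72 h at 37 °C, 5% CO2. Viability was read by CellTiter-Glo; GI50 is the concentration (μM) giving 50% growth inhibition.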

The test system of assay [5] is Ba/F3 cells expressing del19/T790M (EGFR-DT). Briefly: Growth inhibition (GI50) of Ba/F3 cells expressing del19/T790M (EGFR-DT), Celltiter glo. The note with it: Mus musculus, BaF3, 72 h. The method, then:
as §2, §3

In the case of `COc1cc(N2CCC(N3CCN(C)CC3)CC2)c(Cl)cc1Nc1ncc(Cl)c(Nc2cc3c(cc2N(C)S(C)(=O)=O)CCO3)n1` [Example 249, N-(6-((5-chloro-2-((5-chloro-2-methoxy-4-(4-(4-methylpiperazin-1-yl)piperidin-1-yl)phenyl)amino)pyrimidin-4-yl)amino)-2,3-dihydrobenzofuran-5-yl)-N-methylmethanesulfonamide], the GI50 in assay [1] lay in the range of 25 to 100 nM; in assay [2], 1 to 25 nM; in assay [3], 100 to 500 nM; in assay [4], 1 to 25 nM; in the assay on parental Ba/F3 cell line, 2000 to 10000 nM; in assay [5], 1 to 25 nM.
As for `Cc1cc(Nc2ncc(Br)c(Nc3ccc(F)cc3NS(C)(=O)=O)n2)c(Cl)cc1N1CCC(N2CCCN(C)CC2)CC1` [Example 44, N-(2-((5-bromo-2-((2-chloro-5-methyl-4-(4-(4-methyl-1,4-diazepan-1-yl)piperidin-1-yl)phenyl)amino)pyrimidin-4-yl)amino)-5-fluorophenyl)methanesulfonamide], the GI50 in assay [1] was 25 to 100 nM; in assay [2] it was 100 to 500 nM; in assay [3] it was 500 to 2000 nM; in assay [4] it was 25 to 100 nM; with parental Ba/F3 cell line, 500 to 2000 nM; in assay [5] it was 25 to 100 nM.
Consider `COc1cc(N2CCC(N3CCN(C4CC4)CC3)CC2)c(C)cc1Nc1ncc(Br)c(Nc2cc3c(cc2NS(C)(=O)=O)CCO3)n1` [Example 212, N-(6-((5-bromo-2-((4-(4-(4-cyclopropylpiperazin-1-yl)piperidin-1-yl)-2-methoxy-5-methylphenyl)amino)pyrimidin-4-yl)amino)-2,3-dihydrobenzofuran-5-yl)methanesulfonamide], for which the 50% growth inhibitory concentration (GI50) in assay [1] lay within 25 to 100 nM; in assay [2], 1 to 25 nM; in assay [3], 100 to 500 nM; in assay [4], 1 to 25 nM; in the assay on parental Ba/F3 cell line, 2000 to 10000 nM; in assay [5] it was 1 to 25 nM.
Regarding `COc1nc(N2C[C@@H](C)N(C)[C@@H](C)C2)ccc1Nc1ncc(Cl)c(Nc2ccc(F)cc2NS(C)(=O)=O)n1` [Example 20, N-(2-((5-chloro-2-((2-methoxy-6-((3S,5R)-3,4,5-trimethylpiperazin-1-yl)pyridin-3-yl)amino)pyrimidin-4-yl)amino)-5-fluorophenyl)methanesulfonamide], the GI50 lay within 500 to 2000 nM in assay [1]; 500 to 2000 nM in assay [2]; 2000 to 10000 nM in assay [3]; 500 to 2000 nM in assay [4]; 2000 to 10000 nM in the assay with parental Ba/F3 cell line; 500 to 2000 nM in assay [5].
In the case of `Cc1cc(Nc2ncc(Cl)c(Nc3cc(Cl)ccc3NS(C)(=O)=O)n2)c(Cl)cc1N1CCC(N2CCC(N(C)C)C2)CC1` (stereo not drawn) [Example 157, N-(4-chloro-2-((5-chloro-2-((2-chloro-4-(4-(3-(dimethylamino)pyrrolidin-1-yl)piperidin-1-yl)-5-methylphenyl)amino)pyrimidin-4-yl)amino)phenyl)methanesulfonamide], the GI50 lay in the range of 100 to 500 nM in assay [1]; 25 to 100 nM in assay [2]; 100 to 500 nM in assay [3]; 25 to 100 nM in assay [4]; 500 to 2000 nM with parental Ba/F3 cell line; 25 to 100 nM in assay [5].
As for `CC(=O)Nc1ccccc1Nc1nc(Nc2cnc(N3CCC(N4CCN(C)CC4)CC3)c(F)c2)ncc1Cl` [Example 70, N-(2-((5-chloro-2-((5-fluoro-6-(4-(4-methylpiperazin-1-yl)piperidin-1-yl)pyridin-3-yl)-amino)pyrimidin-4-yl)amino)phenyl)acetamide], the GI50 was in the range of 25 to 100 nM in assay [1]; 25 to 100 nM in assay [2]; 100 to 500 nM in assay [3]; 25 to 100 nM in assay [4]; 500 to 2000 nM in the assay with parental Ba/F3 cell line; 25 to 100 nM in assay [5].
For `COc1cc(N2CCC(N3CCCN(C)CC3)CC2)c(Cl)cc1Nc1ncc(Br)c(Nc2cc(Cl)ccc2NS(C)(=O)=O)n1` [Example 95, N-(2-((5-bromo-2-((5-chloro-2-methoxy-4-(4-(4-methyl-1,4-diazepan-1-yl)piperidin-1-yl)phenyl)amino)pyrimidin-4-yl)amino)-4-chlorophenyl)methanesulfonamide], the 50% growth inhibitory concentration (GI50) in assay [1] fell in the range of 1 to 25 nM; in assay [2], 1 to 25 nM; in assay [3] it was 100 to 500 nM; in assay [4], 1 to 25 nM; with parental Ba/F3 cell line, 500 to 2000 nM; in assay [5], 1 to 25 nM.
Turning to `COc1nc(N2CCS(=O)(=O)CC2)ccc1Nc1ncc(Cl)c(Nc2ccccc2NS(C)(=O)=O)n1` [Example 6], the 50% growth inhibitory concentration (GI50) in assay [1] is 500 to 2000 nM; in assay [2], 500 to 2000 nM; in assay [3], 500 to 2000 nM; in assay [4], 500 to 2000 nM; in the assay with parental Ba/F3 cell line, over 10000 nM; in assay [5] it was 500 to 2000 nM.
Consider `COc1cc(N2CCC(N3CCN(C)CC3)CC2)c(Cl)cc1Nc1ncc(Br)c(Nc2cc3c(cc2N(C)S(C)(=O)=O)CCO3)n1` [Example 252, N-(6-((5-bromo-2-((5-chloro-2-methoxy-4-(4-(4-methylpiperazin-1-yl)piperidin-1-yl)phenyl)amino)pyrimidin-4-yl)amino)-2,3-dihydrobenzofuran-5-yl)-N-methylmethanesulfonamide], for which the GI50 was 25 to 100 nM in assay [1]; 1 to 25 nM in assay [2]; 25 to 100 nM in assay [3]; 1 to 25 nM in assay [4]; 2000 to 10000 nM in the assay on parental Ba/F3 cell line; 1 to 25 nM in assay [5].
Consider `COc1cc(N2CCC(N3CCN(C)CC3)CC2)ccc1Nc1ncc(Cl)c(Nc2cc3c(cc2NS(C)(=O)=O)CCO3)n1` [Example 220, N-(6-((5-chloro-2-((2-methoxy-4-(4-(4-methylpiperazin-1-yl)piperidin-1-yl)phenyl)amino)pyrimidin-4-yl)amino)-2,3-dihydrobenzofuran-5-yl)methanesulfonamide], for which the GI50 lay within 100 to 500 nM in assay [1]; 25 to 100 nM in assay [2]; 500 to 2000 nM in assay [3]; 100 to 500 nM in assay [4]; 25 to 100 nM in the assay on parental Ba/F3 cell line; 100 to 500 nM in assay [5].
Turning to `COc1cc(N2CCC(N3CCN(C)CC3)CC2)c(Cl)cc1Nc1ncc(Cl)c(Nc2ccc3c(c2)NCC3)n1` [Example 278], the concentration for 50% growth inhibition (GI50) in assay [1] was 2000 to 10000 nM; in assay [2] it was 2000 to 10000 nM; in assay [3] it was over 10000 nM; in assay [4] it was over 10000 nM; with parental Ba/F3 cell line, 2000 to 10000 nM; in assay [5], over 10000 nM.
On to `COc1cc(N2CCC(N3CCN(C)CC3)CC2)c(Cl)cc1Nc1ncc(Cl)c(Nc2ccc3c(c2)N(C)CC3)n1` [Example 273], for which the GI50 in assay [1] was in the range of 500 to 2000 nM; in assay [2] it was 100 to 500 nM; in assay [3], 25 to 100 nM; in assay [4], 100 to 500 nM; with parental Ba/F3 cell line it was 500 to 2000 nM; in assay [5] it was 500 to 2000 nM.
Regarding `CNS(=O)(=O)c1ccccc1Nc1nc(Nc2ccc(N3CCC(N(C)C)C3)nc2OC)ncc1Cl` (stereo not drawn) [Example 57, 2-((5-chloro-2-((6-(3-(dimethylamino)pyrrolidin-1-yl)-2-methoxypyridin-3-yl)amino)pyrimidin-4-yl)amino)-N-methylbenzenesulfonamide], the GI50 lay in the range of 500 to 2000 nM in assay [1]; 500 to 2000 nM in assay [2]; 500 to 2000 nM in assay [3]; 500 to 2000 nM in assay [4]; 500 to 2000 nM in the assay with parental Ba/F3 cell line; 100 to 500 nM in assay [5].
For `COc1cc(N2CCC(N3CCC(C(F)(F)F)CC3)CC2)c(C)cc1Nc1ncc(Br)c(Nc2ccc(F)cc2NS(C)(=O)=O)n1` [Example 148, N-(2-((5-bromo-2-((2-methoxy-5-methyl-4-(4-(trifluoromethyl)-[1,4′-bipiperidin]-1′-yl)phenyl)amino)pyrimidin-4-yl)amino)-5-fluorophenyl)methanesulfonamide], the GI50 is 100 to 500 nM in assay [1]; 500 to 2000 nM in assay [2]; 500 to 2000 nM in assay [3]; 100 to 500 nM in assay [4]; 500 to 2000 nM in the assay with parental Ba/F3 cell line; 100 to 500 nM in assay [5].
With `CNS(=O)(=O)c1ccccc1Nc1nc(Nc2ccc(N3CCN(CCO)CC3)nc2OC)ncc1Cl` [Example 56, 2-((5-chloro-2-((6-(4-(2-hydroxyethyl)piperazin-1-yl)-2-methoxypyridin-3-yl)amino)pyrimidin-4-yl)amino)-N-methylbenzenesulfonamide], the GI50 in assay [1] was 500 to 2000 nM; in assay [2] it was 500 to 2000 nM; in assay [3], 500 to 2000 nM; in assay [4] it was 500 to 2000 nM; with parental Ba/F3 cell line it was 2000 to 10000 nM; in assay [5], 100 to 500 nM.
